The results in this text go back to patent publication US20150250786A1, “PYRIMIDINE HYDROXY AMIDE COMPOUNDS AS PROTEIN DEACETYLASE INHIBITORS AND METHODS OF USE THEREOF” (THE TRUSTEES OF THE UNIVERSITY OF PENNSYLVANIA, priority 2012, published 2015).

Where two headings read alike, the source gives them in different places.

The subject of test [1] is RN46A-B14 serotonergic cell line. Kind of test: Histone H3K9 acetylation in RN46A-B14 cells (Western blot). The class given is cell-based, rat. The settings on record: 2.5 μM, 4 hours.
The test system of test [2] is α-tubulin acetylation in mouse whole brain lysates. The test is described as follows: α-tubulin acetylation in whole brain lysates after single i.p. administration. The class given is in vivo. To be noted: compound 73 5 mg/kg, compound 101 50 mg/kg, tubastatin A 10 mg/kg, 30 min, 1 h, 4 h.
For test [3], the system named is histone H3 lysine 9 acetylation. Kind of test: Histone H3K9 acetylation in vivo (Western blot, ChIP). The arrangement: species or system mouse. The settings on record: in vivo treatment.
The test system of test [4] is mice. The test is described as follows: Open-field test. The class given is in vivo, mouse.
The test system of test [5] is mice. Kind of test: Marble-burying task. The class given is in vivo, mouse. To be noted: acute administration.
For test [6], the system named is NIH Swiss mice; C57BL/6J HDAC6 WT and KO mice. Kind of test: Tail suspension test (TST). To be noted: NIH Swiss mice. The class given is in vivo, mouse.
For test [7], the system named is mice. The test is described as follows: Chronic social defeat (CSD) and social interaction test. To be noted: after CSD; fluoxetine 20 mg/kg, compound 73 5 mg/kg, compound 101 50 mg/kg. The class given is in vivo, mouse. On the procedure: Additionally, when combined with a dose of Citalopram with lower activity, these compounds seemed to have an additive effect (See FIG. 10). The dose of Citalopram chosen for this experiment was based on literature stating 2 mg/kg should be subactive, but this dose was found still showing an effect. Mice then underwent chronic social defeat stress, in which the mice are exposed to an aggressive resident mouse for 5 minutes daily for 10 days and are then tested on the 11th day in the social interaction test. Mice treated with vehicle for 20 total days, beginning 10 days before the defeat, show reduced time spent in the interaction zone when a target mouse is present when compared with control mice. […] The percent of mice found to be resilient, defined as spending more time in the interaction zone than the lowest control (i.e. ˜52 s), is higher in HDAC6 inhibitor groups. All behavior testing done using NIH Swiss mice, age 6-10 weeks. Tukey post-hoc analysis: * P=0.01 to 0.05, ** P=0.001-0.01, ***P<0.001 compared with vehicle treated mice.
The effects were observed 30 minutes after acute 50 mg/kg i.p. injection, but not for the lower dose (5 mg/kg). Combination of subactive doses of the HDAC6 selective inhibitors (5 mg/kg) and citalopram (0.5 mg/kg) produced robust potentiation of anti-immobility activity (n=8-29 per condition). […] No difference was observed between HDAC6 WT and KO when treated with the vehicle (n=6-15 per condition). FIG. 16c is a timeline showing treatment period, social defeat and social interaction (SI) testing.
A pro-resilient phenotype in the mouse CSD paradigm after serotonin-selective KO of HDAC6 was previously reported (Espallergues et al, 2012). Whether a chronic pharmacological inhibition of HDAC6 can replicate that phenotype is studied. […] On day 21, 24 h after the last injection, the mice were tested in the social interaction test. […] Significant effects were also observed when data was evaluated in terms of proportion of mice reaching criterion for resiliency.

Another test deals with HDAC1 (Homo sapiens, UniProt Q13547). Kind of test: HDAC enzyme assay, HDAC1.
Chain of HDAC1 (Q13547 whole entry): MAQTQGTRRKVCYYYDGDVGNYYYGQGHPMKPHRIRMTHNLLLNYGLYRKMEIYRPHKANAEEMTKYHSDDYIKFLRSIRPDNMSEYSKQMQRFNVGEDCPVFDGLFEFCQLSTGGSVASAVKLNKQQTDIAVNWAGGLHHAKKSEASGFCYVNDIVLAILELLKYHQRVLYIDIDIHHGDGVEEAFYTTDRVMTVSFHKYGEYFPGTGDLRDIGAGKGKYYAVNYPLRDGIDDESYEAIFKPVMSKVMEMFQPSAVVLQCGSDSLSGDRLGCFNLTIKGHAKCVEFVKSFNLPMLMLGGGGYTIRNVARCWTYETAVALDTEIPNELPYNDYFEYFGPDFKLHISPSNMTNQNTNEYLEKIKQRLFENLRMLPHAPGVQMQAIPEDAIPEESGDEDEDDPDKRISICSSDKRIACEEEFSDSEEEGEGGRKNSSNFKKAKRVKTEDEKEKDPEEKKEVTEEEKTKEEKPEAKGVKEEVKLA
For the next test, the target named is HDAC2 (Homo sapiens, UniProt Q92769). Kind of test: HDAC enzyme assay, HDAC2.
Chain of HDAC2 (Q92769 whole entry): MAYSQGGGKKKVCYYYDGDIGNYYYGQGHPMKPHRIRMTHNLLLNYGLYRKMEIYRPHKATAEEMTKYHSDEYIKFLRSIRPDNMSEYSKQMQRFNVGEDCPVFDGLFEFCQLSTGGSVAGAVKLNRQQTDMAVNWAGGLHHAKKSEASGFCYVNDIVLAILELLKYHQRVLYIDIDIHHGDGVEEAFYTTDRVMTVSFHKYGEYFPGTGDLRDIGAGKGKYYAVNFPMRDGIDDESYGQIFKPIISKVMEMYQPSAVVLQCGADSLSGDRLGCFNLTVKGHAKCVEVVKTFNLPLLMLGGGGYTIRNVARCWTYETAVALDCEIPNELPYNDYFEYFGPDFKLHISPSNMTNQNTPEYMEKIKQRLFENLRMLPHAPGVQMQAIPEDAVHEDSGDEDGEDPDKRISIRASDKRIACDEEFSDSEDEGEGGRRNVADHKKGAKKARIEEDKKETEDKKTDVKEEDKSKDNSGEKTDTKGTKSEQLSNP
Another test deals with HDAC3 (Homo sapiens, UniProt O15379). The test is described as follows: HDAC enzyme assay, HDAC3.
Chain of HDAC3 (O15379 whole entry): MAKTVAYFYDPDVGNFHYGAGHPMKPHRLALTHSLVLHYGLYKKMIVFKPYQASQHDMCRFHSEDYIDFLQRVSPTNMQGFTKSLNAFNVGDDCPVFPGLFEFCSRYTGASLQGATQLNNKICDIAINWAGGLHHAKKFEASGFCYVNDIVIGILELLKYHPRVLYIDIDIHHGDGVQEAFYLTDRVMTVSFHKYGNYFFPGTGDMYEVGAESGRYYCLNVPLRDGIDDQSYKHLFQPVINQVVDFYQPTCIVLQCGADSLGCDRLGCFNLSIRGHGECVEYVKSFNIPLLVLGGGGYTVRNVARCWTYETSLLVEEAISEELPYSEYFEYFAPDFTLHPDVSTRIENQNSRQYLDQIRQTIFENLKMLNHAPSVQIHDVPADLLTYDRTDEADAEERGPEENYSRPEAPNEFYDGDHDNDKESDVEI
Chain of HDAC3 (Q9Y618 395-489 partner limits assumed): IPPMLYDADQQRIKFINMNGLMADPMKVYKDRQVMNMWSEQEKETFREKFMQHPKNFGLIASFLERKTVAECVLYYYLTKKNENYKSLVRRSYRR
In a further test the target is T1, HDAC6 (Homo sapiens, UniProt Q9UBN7).
T1 sequence (Q9UBN7 1-1215): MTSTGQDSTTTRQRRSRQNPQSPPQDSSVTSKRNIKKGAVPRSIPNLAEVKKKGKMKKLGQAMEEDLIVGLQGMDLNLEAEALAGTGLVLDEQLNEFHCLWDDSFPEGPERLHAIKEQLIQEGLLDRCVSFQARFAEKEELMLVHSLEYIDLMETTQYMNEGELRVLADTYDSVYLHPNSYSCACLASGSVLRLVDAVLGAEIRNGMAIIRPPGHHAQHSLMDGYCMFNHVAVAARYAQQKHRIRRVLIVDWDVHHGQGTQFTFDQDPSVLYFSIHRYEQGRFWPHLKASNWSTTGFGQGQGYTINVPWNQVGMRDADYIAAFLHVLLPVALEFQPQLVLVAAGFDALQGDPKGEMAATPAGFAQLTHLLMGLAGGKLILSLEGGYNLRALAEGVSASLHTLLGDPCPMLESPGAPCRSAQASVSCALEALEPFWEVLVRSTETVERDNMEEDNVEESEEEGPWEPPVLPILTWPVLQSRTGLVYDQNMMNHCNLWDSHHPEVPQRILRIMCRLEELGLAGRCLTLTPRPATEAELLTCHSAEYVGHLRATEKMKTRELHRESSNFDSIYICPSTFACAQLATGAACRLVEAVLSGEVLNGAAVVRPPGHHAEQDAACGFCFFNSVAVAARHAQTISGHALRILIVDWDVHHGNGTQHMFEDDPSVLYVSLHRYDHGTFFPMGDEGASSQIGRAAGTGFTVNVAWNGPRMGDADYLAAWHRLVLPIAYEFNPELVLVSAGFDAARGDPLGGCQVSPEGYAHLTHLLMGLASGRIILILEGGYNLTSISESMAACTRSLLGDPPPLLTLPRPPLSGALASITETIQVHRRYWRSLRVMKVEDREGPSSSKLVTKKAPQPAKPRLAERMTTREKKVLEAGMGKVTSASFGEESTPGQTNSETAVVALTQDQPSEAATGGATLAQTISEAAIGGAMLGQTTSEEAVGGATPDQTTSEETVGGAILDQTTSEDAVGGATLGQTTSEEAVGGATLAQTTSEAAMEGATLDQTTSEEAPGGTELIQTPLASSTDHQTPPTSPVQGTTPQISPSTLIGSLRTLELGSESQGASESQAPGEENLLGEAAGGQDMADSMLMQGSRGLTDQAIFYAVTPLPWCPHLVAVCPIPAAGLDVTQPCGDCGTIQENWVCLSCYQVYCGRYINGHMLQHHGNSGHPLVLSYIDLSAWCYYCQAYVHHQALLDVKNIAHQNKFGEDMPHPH
The test is described as follows: HDAC enzyme assay, HDAC6.

The subject of test [8] is all other class II HDAC isoforms. Kind of test: HDAC inhibition, other class II isoforms. The settings on record: read-out: IC50 against all other class II HDAC isoforms.

With `O=C(NO)c1cnc(NC2(c3cccc(F)c3)CCCCC2)nc1` [Compound 101, 2-((1-(3-fluorophenyl)cyclohexyl)amino)-N-hydroxypyrimidine-5-carboxamide], the “change in histone H3K9 acetylation” value in [1] was “no significant change”. Moreover, the “α-tubulin acetylation in whole brain lysates” value in [2] was “significant increases”. Moreover, the “acetylation of histone 3 at lysine 9 in Western blot” value in test [3] is listed as “did not significantly alter”. For the same compound, the “exploratory activity in novel open-field arena” value with mice [4] (acute, compounds 73, 101 50 mg/kg, tubastatin A 10 mg/kg) is recorded as “hyperlocomotor effects”. Moreover, the “distance in the center of the open field” value in the test on mice [4] (mouse, in vivo) is given as 419±73 beam breaks. Moreover, in the test with mice [4] (same doses (50 mg/kg)), the “open-field exploration in neural cell selective HDAC6 KO mice” value is on record as “did not significantly alter”. In addition, the “number of marbles buried” value in the test on mice [5] was “significantly reduced”. Moreover, the “immobility in TST” value is listed as “No significant effect” in [6] (5 mg/kg) and “Significant reductions” in test [6] (50 mg/kg i.p., 30 minutes). Moreover, the “percentage of resilient mice” value in the test on mice [7] worked out at 58%. Also, the “HDAC1 fold versus HDAC6 (in brackets)” value was 283 x at HDAC1 (Table 3) and “(283.5x)” at HDAC1 (selectivity HDAC6 over HDAC1). In addition, the “HDAC2 fold versus HDAC6 (in brackets)” value was “(343.2x)” at HDAC2 and 342 x on HDAC2 (Table 3). Further, the “HDAC3 fold versus HDAC6 (in brackets)” value at HDAC3 was “(1498.8x)”; on HDAC3 (Table 3) it was 1496 x. The results for the IC50 (against HDAC6; in test [8]) were 7.5 nM and greater than 1000 nM, respectively. Moreover, the “average selectivity over class I HDACs” value on HDAC6 is listed as 700 fold.
